Source: patent publication US8507440B2, “Protein kinase C peptides for use in withdrawal” (The Board of Trustees of the Leland Stanford Junior …, priority 2002, dated 2013)
Like-named read-outs stand apart in the source and are kept apart here.

Columns and labels:
γPKC [1] = molecular target: T1, γPKC (Rattus norvegicus, UniProt P63319); assay type: cell-based; details: after application of ethanol 100 mM; control about 14
T1 construct: from tissue; host or cells: lumbar spinal cord slices of postnatal day 7-10 Sprague-Dawley rats
Description: Fluorescence immunocytochemical studies were performed on the spinal cord sections, as described in Example 3. The sections were incubated with an anti-γPKC antibody and an anti-neuronal antibody to identify neurons. […] Translocation of γPKC was quantified by counting the number of cells with γPKC localized to the nucleus before (control) and after application of ethanol, as well as after washing with artificial cerebrospinal fluid. […] Two to three sections per animal were counted.
Fluorescence immunocytochemical studies were performed on spinal cord sections […] from control slices (perfused with ACSF for 70 minutes) and EtOH treated slices (perfused with ACSF for 30 minutes followed by 20 min 100 mM EtOH and 20 min wash with ACSF). The sections were incubated with a rabbit anti-PKCg polyclonal antibody (1:500) overnight at 4° C. In some cord sections, a mouse anti-neuronal nuclei monoclonal antibody (NeuN, 1:750) was added to identify neurons. After several washes with ACSF, the sections were labeled for 2 hours at room temperature with fluorescein-labeled secondary antibodies (1:500). Double immunofluorescence was assessed with a laser confocal microscope.

[2] = test system: 7 day old and 21 day old rats; assay: ethanol withdrawal mechanical allodynia testing (von Frey threshold withdrawal force); assay type: in vivo, rat
[3] = test system: N-methyl-D-aspartate (NMDA) receptor currents; assay: alcohol withdrawal hyperresponsiveness of NMDA-evoked currents in lumbar spinal cord slice motor neurons; assay type: cell-based, rat; details: 100 mM EtOH, n=11 motor neurons
Description: Spinal cords were taken from young rats, and slices of these cords were made and placed in artificial cerebrospinal fluid for patch clamp electrophysiological analysis, to characterize the ability of γPKC peptides to mediate alcohol withdrawal hyperresponsiveness of N-methyl-D-aspartate (NMDA) receptor currents. FIG. 7A is a schematic diagram of the technique, where a lumbar spinal cord slice 10 is shown. The placement of a recording electrode 12 and a pipette 14 for application of NMDA relative to a motor neuron 16 is illustrated.
Sprague-Dawley rats at postnatal day 7-10 were anesthetized with halothane, decapitated, and the spinal cords were quickly removed. Slices […] thick were sectioned from the lumbar region. Whole cell voltage clamp recordings were made from visually-identified motor neurons using infrared video microscopy, a 60× water immersion lens, and a MultiClamp 700A patch clamp amplifier. Cells were held at a holding potential of −60 mV in artificial cerebrospinal fluid (ACSF) containing bicuculline methiodide ([…]), strychnine ([…]), and tetrodotoxin ([…]). Postsynaptic currents were evoked by direct pressure application of 2 mM N-methyl-D-aspartate (NMDA) from a pipette positioned near the recorded cell at 1-2 min intervals, as illustrated in FIG. 7A. The area of evoked currents during and following 100 mM ethanol (EtOH) application was measured and normalized to the average baseline current area during the 10 minutes preceding EtOH application. Data are expressed as mean +/−SEM: Statistical significance was determined by one-way ANOVA followed by Dunn's or Tukey's multiple comparison test with significance set at p<0.05.

[4] = for maximal blood EtOH concentration: 30 minutes post 4 g/kg 15% EtOH; for maximal EtOH concentration in spinal cord: 4 g/kg 15% EtOH
[5] = test system: 7 day old and 21 day old rats; assay: ethanol withdrawal thermal hyperalgesia testing (paw withdrawal latency); assay type: in vivo, rat; details: 4 g/kg 15% EtOH
εPKC = test system: εPKC
Description: (§1) To determine if EtOH alters the expression and cellular localization of εPKC and γPKC, immunohistochemistry was performed on L4/5 dorsal root ganglion (DRG) and L4/5 lumbar spinal cord sections, as described in Example 4. Rat at postnatal days 7 and 21, treated with saline or 4 g/kg 15% EtOH, were euthanized at 2, 4, or 6 hours post injection for isolation of the lumbar spinal cords.
(§2) Animals administered a single dose of 4 g/kg 15% EtOH or saline (i.p.) were deeply anesthetized with halothane and euthanized at 2, 4, or 6 hours post injection by transcardiac perfusion (phosphate-buffered saline wash, followed by 4% formaldehyde in PBS, pH 7.4). Following perfusion, lumbar spinal cord and L4/L5 dorsal root ganglia (DRG) were isolated and post-fixed for 3 hours in 4% formaldehyde solution followed by cryoprotection in 30% sucrose/PBS at 4° C. Sections were freeze-mounted in OCT-embedding medium on cork blocks and stored at −80° C. until analysis. For spinal cord sections, free-floating immunohistochemistry was performed on 30 μm L4-L5 spinal sections. Dorsal root ganglia were cut on a cryostat at 10 μm and slide mounted. Slides were heated overnight at 32° C. Immunohistochemistry was performed utilizing an avidin-biotin complex (ABC) technique as previously described (Sweitzer et al., Brain Res., 829(1-2):209-221 (1999)). Rabbit polyclonal antibodies to γPKC (1:500 from Santa Cruz) or εPKC (1:1,000 from Santa Cruz) were used. Immunohistochemistry was scored blinded to experimental conditions.
(§3) For both spinal cord tissues and DRG, densitometry using ImageJ software was performed on at least three sections from each of three individual animals.

γPKC [6] = test system: γPKC
Description: as §1, §2, §3

in vivo = details: rat, 4 g/kg
[7] = 21 day old rats, 4 g/kg and 0.5 g/kg 15% EtOH

Structure (SMILES): CCO [EtOH, ethanol]
- number of cells having γPKC localized in the nucleus (γPKC [1]): about 6
- threshold withdrawal force after ethanol ([2]; 7 day old rats, 1 g/kg 15% EtOH): did not significantly alter the threshold withdrawal force
- paw threshold withdrawal force after ethanol ([2]; 7 day old rats, 4 g/kg 15% EtOH, 6 hours and 8 hours post injection): exhibited mechanical allodynia
- threshold withdrawal force after ethanol ([2]; 7 day old rats, 4 g/kg 15% EtOH, two hour test interval): slight but insignificant increase in threshold withdrawal force
- mechanical thresholds after ethanol [2, 7]: maximally decreased mechanical thresholds at 6 hours post EtOH injection
- time withdrawal thresholds remained below baseline [2, 7]: up to 72 hours
- normalized NMDA current (INMDA) area after application of alcohol [3]: increases
- time of peak spinal cord EtOH level ([4]; 7 day old and 21 day old rats, post injection): 30 min
- maximal blood EtOH concentration ([4]; 7 day old pups): 5.91 ± 0.46 µg/mL
- maximal EtOH concentration in spinal cord ([4]; 7 day old rats): 14.8 μg/mg tissue
- maximal EtOH concentration in spinal cord ([4]; 21 day old rats): 11.4 μg/mg tissue
- maximal blood EtOH concentration ([4]; 21 day old rats): 5.67 ± 0.60 µg/mL
- time of peak blood EtOH concentration ([4]; both 7 day old and 21 day old rats, post-ethanol injection): 30 min
- spinal cord later-phase half-life relative to half life for blood EtOH levels ([4]; rat, in vivo): 50%
- thermal paw withdrawal latency after ethanol ([5]; 7 day old rats, 6 hours): Thermal hyperalgesia as evidenced by a decrease in paw withdrawal latency, was observed
- thermal paw withdrawal latency after ethanol ([5]; 21 day old rats, entire time period): did not exhibit a decrease in paw withdrawal latency
- cells staining positive for εPKC (εPKC; 7 day old rats, 2 hour exposure to 4 g/kg 15% EtOH): the percentage of cells staining positive for εPKC increased
- cells staining positive for εPKC and staining intensity (εPKC; 21 day old rats, 4 g/kg 15% EtOH): did not result in an increase in the number of positive staining cells or in the staining intensity within positively stained cells
- γPKC cellular localization (γPKC [6]; 2 hours post-EtOH injection): had translocated to the plasma membrane
- number of somata staining positive for γPKC above saline control levels (γPKC [6]; 7 day old rats, lamina II, 6 hours post injection of 4 g/kg 15% EtOH): 4 fold
- γPKC staining intensity (γPKC [6]; 21 day old rats, 2 to 6 hours post-EtOH injection): γPKC staining intensity increased
- half-life (in vivo; spinal cord, ip, T ½ Early, 7 day old rat, 4 g/kg 15% EtOH i.p.): 1.6 h
- half-life (in vivo; spinal cord, ip, T ½ Early, 21 day old rat, 4 g/kg 15% EtOH i.p.): 1.5 h
- half-life (in vivo; spinal cord, ip, T ½ Late, 7 day old rat, 4 g/kg 15% EtOH i.p.): 11.5 h
- half-life (in vivo; spinal cord, ip, T ½ Late, 21 day old rat, 4 g/kg 15% EtOH i.p.): 11.7 h
- half-life (in vivo; whole blood, intraperitoneal, extension of blood late phase half-life of 21 day old beyond 7 day old rats, blood): 4 h
- half-life (in vivo; whole blood, ip, T ½ Early, Blood, 7 day old rat, 4 g/kg 15% EtOH i.p.): 1.9 h
- half-life (in vivo; whole blood, ip, T ½ Early, Blood, 21 day old rat, 4 g/kg 15% EtOH i.p.): 1.7 h
- half-life (in vivo; whole blood, ip, T ½ Late, Blood, 7 day old rat, 4 g/kg 15% EtOH i.p.): 18.1 h
- half-life (in vivo; whole blood, ip, T ½ Late, Blood, 21 day old rat, 4 g/kg 15% EtOH i.p.): 22.5 h
